Assay results from patent US6541463B1, “Inhibitors of type 5 and type 3 17β-hydroxysteroid dehydrogenase and methods for their use” (Endorecherche, Inc., priority 1998, dated 2003).
Where “and” joins values, the source holds several entries; their conditions need not be identical. Equal values may be shown once.

Target: T1, human type 5 17β-hydroxysteroid dehydrogenase (Homo sapiens, UniProt P42330)
T1 construct: screen again a human placental λgt11 cDNA to get the full length cDNA clone; expressed in transfected cells; host or cells: human embryonal kidney 293 cells (pCMV / pCMV-neo vector)
T1 sequence (P42330 1-323): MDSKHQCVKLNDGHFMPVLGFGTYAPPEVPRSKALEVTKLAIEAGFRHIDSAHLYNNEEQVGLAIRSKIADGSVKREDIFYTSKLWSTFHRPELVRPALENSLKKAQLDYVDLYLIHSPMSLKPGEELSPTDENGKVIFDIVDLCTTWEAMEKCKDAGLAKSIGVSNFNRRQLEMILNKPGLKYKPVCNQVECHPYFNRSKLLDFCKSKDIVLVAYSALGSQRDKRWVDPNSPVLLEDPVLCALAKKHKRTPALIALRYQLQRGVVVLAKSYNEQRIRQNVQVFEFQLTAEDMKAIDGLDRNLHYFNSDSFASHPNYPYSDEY
Experiment: Inhibition of human type 5 17β-HSD activity in transfected 293 cells
Type: cell-based
Set-up: Inhibition Type V 17B-HSD % Inh. At 3 · 10^−7 (second value in parentheses): concentration or dose not given beside the values
Conditions: not given
Description: The manner in which IC50 was determined is described in “Efficacy of the Preferred Inhibitors”. Lower numbers for IC50 are desirable.
Using a oligoprimer pair (5′-GGA-AAT-CGT-GAC-AGG-GAA-TGG-ATT-CCA-AAC-AG-3′, 5′-GGA-ATT-CTT-TAT-TGT-ATT-TCT-GGC-CTA-TGG-AGT-GAG-3′) derived from human aldoketoreductase (Qin et al., J. Steroid Biochem. Molec. Biol. 46: 673-679, 1993) and polymerase chain reaction (PCR), we have amplified from a human placental λgt11 cDNA library (Clontech Laboratories Inc., Palo Alto, Calif.) a cDNA fragment that was used as probe to screen again a human placental λgt11 cDNA to get the full length cDNA clone. The amplified cDNA fragment was purified on agarose gel and labeled with [α^32P]dCTP (Amersham Corp.) using the random primer labeling kit from Pharmacia Inc. PCR amplification reaction medium contained 50 mM KCl, 10 mM Tris-HCl, pH 8.3, 0.1% gelatin, 1 mM MgCl2, 250 μM dNTP, 0.25 μM oligonucleotide primers, and 200 ng of DNA prepared from human placental λgt11 cDNA library. The aqueous phase was overlaid with 75 μL of mineral oil to avoid evaporation. The mixture was heated at 98° C. for 5 min, following the temperature reduction to 72° C., 1 unit of Taq DNA polymerase was added. Using a DNA Thermal Cycler (Perkin-Elmer Corp.), 30 cycles of amplification were carried out using a step program (94° C., 1 min; 60° C., 1 min; and 72° C., 1 min)/cycle.
Approximately 5×10^5 recombinant phage plaques were screened with 1.5×10^6 cpm/ml of the probe. Prehybridization was performed for 4 h at 42° C. in 50% formamide, 5× Denhardt's solution (1× Denhardt's being 0.02% polyvinyl pyrrolidone, 0.02 Ficoll, 0.02 bovine serum albumin), 5×SSPE (1×SSPE being 0.18M NaCl, 10 mM NaH2PO4, pH 7.4, 1 mM EDTA), 0.1% SDS, and 100 μg/ml yeast tRNA. The probe was denatured by heating at 100° C. for 5 min, before being added to the hybridization solution at 42° C. overnight. Filters were then washed twice at room temperature in 2×SSC (1×SSC being […], pH 7.0), 0.1% SDS, and twice in 0.1×SSC, 0.1% SDS at 60° C. Positive recombinant plaques were purified by replating twice and grown in liquid culture. Phage DNA were isolated by centrifugation for 90 min at 105,000×g, and DNA was then isolated by phenol extraction and precipitation with isopropanol (Karen et al. 1987; In: Current Protocols in Molecular Biology (F. M. Ausubel, R. Brent, E. Kingston, D. D. Moore, T. G. Seidman, T. A. Smith and K. Struhl, eds), Wiley & Sons, New York, pp. 1.13.1-1.13.6).
The phage DNA were digested with EcoRI restriction enzymes and the resulting cDNA fragments were inserted into the EcoRI site downstream to the cytomegalovirus (CMV) promoter of the pCMV vector (kindly provided by Dr. Matthew, Cold Spring Harbor, N.Y., USA). Recombinant pCMV plasmids were amplified in Escherichia Coli DH5α competent cells, and were isolated by alkaline lysis procedure (Maniatis et al., In: Molecular cloning: a laboratory manual, Cold Spring Harbor Laboratory., 1982). Sequencing of double-stranded plasmid DNA was performed according to the dideoxy chain termination method (Sanger et al., PNAS 74: 5453-5467, 1977) using a T7 DNA polymerase sequencing kit (Pharmacia LKB Biotechnology). To avoid errors, all sequences were determined by sequencing both strands of the DNA. Oligonucleotide primers were synthesized in our laboratory with a 394 DNA/RNA synthesizer (Applied Biosystem).
The pCMV vector contain 576 nucleotides of the pCMV promoter (followed by 432 bp of small t intron (fragment 4713-4570) and poly adenylation signal (2825-2536)of SV40, followed by 1989 bp of the Pvu II(628)-AatII (2617) fragment from pUC 19 vector (New England Biolabs) that contains an E. Coli origin of replication and an ampicillin resistance gene for propagation in E. Coli. […]

Compound	inhibition of type 5 17β-hydroxysteroid dehydrogenase (in words)
CC(=O)O[C@]1(C(C)=O)CCC2C3C=C(C)C4=CC(=O)CC[C@]4(C)C3CC[C@@]21C (some centres unmarked) [megestrol acetate, reference compound]	inhibit that type 5 enzyme

Same assay, conditions: Table 4′; read-out: Inhibition Type V 17β-HSD IC50

Compound	IC50
COCCOc1cc2c(cc1C(=O)O)C1CCC3(C)C(CCC34CCC(C)(C)C(=O)O4)C1CC2 [EM-1405, 2-Carboxy-3-(2″-methoxyethyloxy)-1,3,5(10)-estratrien-17(R)-spiro-2′-(5′,5′-dimethyl-6′-oxo)tetrahydropyran]	0.023 µM
COCCOc1ccc2c(c1)C(=O)CC1C2CCC2(C)C1CCC21CCC(C)(C)C(=O)O1 (centres unmarked) [EM-1408-CS]	0.0055 ± 0.001 µM
COc1ccc2c(c1)C(=O)CC1C2CC[C@@]2(C)C1CC[C@@]21CCC(C)(C)C(=O)O1 (some centres unmarked) [EM-1394]	0.009 µM
COCCOc1cc2c(cc1F)C1CCC3(C)C(CCC34CCC(C)(C)C(=O)O4)C1CC2 (centres unmarked) [EM-1393-CS]	0.016 µM
CC1(C)CC[C@@]2(CCC3C4CCc5cc(C(=O)O)ccc5C4CC[C@@]32C)OC1=O (stereo partly drawn) [EM-1401, 3-Carboxy-1,3,5(10)-estratrien-17(R)-spiro-2′-(5′,5′-dimethyl-6′-oxo)tetrahydropyran]	0.004 ± 0.0015 µM
CC1CCC2(CCC3C4CCc5ccccc5C4CCC32C)OC1=O (centres unmarked) [EM-1025]	0.0061 µM and 0.0043 µM
CC12CCC3c4ccc(F)cc4CCC3C1CCC21CCCC(=O)O1 (centres unmarked) [EM-1170-CS]	0.007 ± 0.001 µM
CC1(C)CCC2(CCC3C4CCc5c(cc(Cl)c(O)c5Cl)C4CCC32C)OC1=O (centres unmarked) [EM-1391-CS]	0.019 µM
COCCOc1cc2c(cc1C(=O)N(C)C)C1CCC3(C)C(CCC34CCC(C)(C)C(=O)O4)C1CC2 (centres unmarked) [EM-1413-CS]	0.017 µM
COC(=O)C1CCC2(CCC3C4CCc5cc(O)ccc5C4CCC32C)OC1=O [PB-132-146, 3-Hydroxy-1,3,5(10)-estratrien-17(R)-2′-(5′-methoxycarbonyl-6′-oxo)tetrahydropyran]	0.072 ± 0.003 µM
CC1(C)CCC2(CCC3C4CCc5cc(OS(C)(=O)=O)ccc5C4CCC32C)OC1=O (centres unmarked) [EM-1365-CS]	0.012 µM
CN(C)C(=O)c1ccc2c(c1)CCC1C2CCC2(C)C1CCC21CCC(C)(C)C(=O)O1 (centres unmarked) [EM-1403]	0.0072 ± 0.0016 µM
CCOc1ccc2c(c1)CCC1C2CC[C@@]2(C)C1CC[C@@]21CCC(C)(C)C(=O)O1 (stereo partly drawn) [EM-1369, 3-Ethoxy-1,3,5(10)-estratrien-17(R)-spiro-2′-(5′,5′-dimethyl-6′-oxo)-tetrahydropyran]	0.046 µM
COc1cc2c(cc1C(F)(F)F)C1CCC3(C)C(CCC34CCC(C)(C)C(=O)O4)C1CC2 [EM-1409, 3-Methoxy-2-trifluoromethyl-1,3,5(10)-estratrien-17(R)-spiro-2′-(5′,5′-dimethyl-6′-oxo)tetrahydropyran]	0.17 ± 0.07 µM
CC1(C)CCC2(CCC3C4CCc5c(cc(Cl)c(OS(C)(=O)=O)c5Cl)C4CCC32C)OC1=O (centres unmarked) [EM-1392-CS]	0.019 µM
CN(C)C(=O)c1cc2c(cc1O)CCC1C2CCC2(C)C1CCC21CCC(C)(C)C(=O)O1 (centres unmarked) [EM-01661-B]	0.0192 ± 0.001 µM
CC12CCC3c4ccc(O)cc4CCC3C1CCC21CC=CC(=O)O1 [PB-132-140, 3-hydroxy-1,3,5(10)-estratrien-17(R)-spiro-2′-(4′,5′-dihydro-6′-oxo)pyran]	0.049 ± 0.005 µM
CN(C)CCOc1ccc2c(c1)CCC1C2CCC2(C)C1CCC21CCC(C)(C)C(=O)O1 (centres unmarked) [EM-1389-CS]	0.025 µM
COC(=O)c1cc2c(cc1O)CCC1C2CCC2(C)C1CCC21CCC(C)(C)C(=O)O1 (centres unmarked) [EM-01662]	0.035 ± 0.005 µM
C[C@]12CCC3c4ccc(O)cc4CCC3C1CC[C@@]21CCCC(=O)O1 (stereo partly drawn) [EM-919, 1,3,5(10)-estratrien-3-ol-17(R)-spiro-2′(6′-oxo)tetrahydropyran]	0.01 ± 0.0014 µM
CC1CCC2(CCC3C4CCc5cc(O)c([N+](=O)[O-])cc5C4CCC32C)OC1=O [EM-1131, 2-Nitro-1,3,5(10)-estratrien-3-ol-17(R)-spiro-2′-(5′-methyl-6′-oxo)tetrahydropyran]	0.003 µM
COc1ccc2c(c1)C(=O)CC1C3CCC4(CCC(C)(C)C(=O)O4)C3(C)CCC21O (centres unmarked) [EM-1386]	0.025 µM
CCS(=O)(=O)Oc1ccc2c(c1)CCC1C2CCC2(C)C1CCC21CCC(C)(C)C(=O)O1 (centres unmarked) [EM-1364-CS]	0.017 µM
COc1c(Br)cc2c(c1Br)CCC1C2CCC2(C)C1CCC21CCC(C)(C)C(=O)O1 (centres unmarked) [EM-1385-CS]	0.051 µM
CSCCOc1ccc2c(c1)CCC1C2CCC2(C)C1CCC21CCCC(=O)O1 [CS-242, 3-Methylthioethyloxy-1,3,5(10)-estratrien-17(R)-spiro-2′-(6′-oxo) Tetrahydropyran]	0.0066 ± 0.0009 µM

Same assay, conditions: Table 5 column 2; 3.10^−6

Compound	Inhibition Type V 17β-HSD % inh. At 3.10^−6
CN1C(=O)C=C[C@]2(C)C3CC[C@@]4(C)C(CC[C@@]45CCCC(=O)O5)C3CCC12 (some centres unmarked) [EM-1122-CS]	95) %

Same assay, conditions: Table 5 column 2; 3.10^−7

Compound	Inhibition Type V 17β-HSD % inh. At 3.10^−7
CN1C(=O)C=C[C@]2(C)C3CC[C@@]4(C)C(CC[C@@]45CCCC(=O)O5)C3CCC12 (some centres unmarked) [EM-1122-CS]	(80%

Same assay, conditions: at 3.10^−6

Compound	Inhibition Type V 17β-HSD % Inh.
COC(=O)CCCC(=O)O[C@]1(C(C)=O)CC[C@H]2[C@@H]3C=C(C)C4=CC(=O)CC[C@]4(C)[C@H]3CC[C@@]21C [EM-1007, 6-Methyl-4,6-pregnadien-17α-ol-3,20-dione 4′-Carbomethoxybutyrate]	86) %

Same assay, conditions: at 3.10^−7

Compound	Inhibition Type V 17β-HSD % Inh.
COC(=O)CCCC(=O)O[C@]1(C(C)=O)CC[C@H]2[C@@H]3C=C(C)C4=CC(=O)CC[C@]4(C)[C@H]3CC[C@@]21C [EM-1007, 6-Methyl-4,6-pregnadien-17α-ol-3,20-dione 4′-Carbomethoxybutyrate]	(81%

Same assay, conditions: first of two concentrations, 3 · 10^−7

Compound	Inhibition Type V 17B-HSD % Inh. At 3 · 10^−7 (first value in parentheses)
CC1=C[C@@H]2[C@H](CC[C@]3(C)C(=O)C4(CCCCC4)C[C@@H]23)[C@@]2(C)CCC(=O)C=C12 [EM-925]	(46%
C[C@]12CCC(=O)C=C1C=C[C@@H]1[C@@H]2CC[C@]2(C)C(=O)C3(CC4CC4C3)C[C@@H]12 (some centres unmarked) [EM-1299, 4,6-Androstadien-3,17-dione-16-spirobicyclo[3′.1′.0′]-hexane]	(73%

Same assay, conditions: read-out: Inhibition Type V 17B-HSD IC50

Compound	IC50 [µM]
CC(=O)O[C@]1(C)C(=O)CCC2C3C=C(C)C4=CC(=O)C=C[C@]4(C)C3CC[C@@]21C (some centres unmarked) [CS-237]	0.009 ± 0.001
CCC[C@@H]1CC2C3C=CC4=CC(=O)CC[C@]4(C)C3CC[C@]2(C)C1=O (some centres unmarked) [EM-1097]	0.01
CCC[C@]1(F)CC2C3C=CC4=CC(=O)CC[C@]4(C)C3CC[C@]2(C)C1=O (some centres unmarked) [EM-1183]	0.0046 ± 0.0004

Same assay, conditions: read-out: Inhibition Type V 17β-HSD IC50

Compound	IC50 [µM]
CCCC(=O)OC1(C(C)=O)CCC2C3C=C(C)C4=CC(=O)CC(C)C4(C)C3CCC21C (centres unmarked) [CS-245]	0.0032 ± 0.0001
CC(=O)[C@@]1(OC(=O)CCCCF)CCC2C3C=C(C)C4=CC(=O)CC[C@]4(C)C3CC[C@@]21C (some centres unmarked) [EM-1195-CS]	0.004 ± 0.0005
CC(=O)O[C@]1(C(=O)N(C)C)CCC2C3C=C(C)C4=CC(=O)CC[C@]4(C)C3CC[C@@]21C (some centres unmarked) [EM-1159]	0.014 ± 0.002
CC(=O)O[C@]1(C(C)=O)CCC2C3C=C(C)C4=CC(=O)CC[C@]4(C)C3CC[C@@]21C (some centres unmarked) [megestrol acetate, reference compound]	0.0174 ± 0.0028

Same assay, conditions: second of two concentrations, 3 · 10^−7

Compound	Inhibition Type V 17B-HSD % Inh. At 3 · 10^−7 (second value in parentheses)
CC1=C[C@@H]2[C@H](CC[C@]3(C)C(=O)C4(CCCCC4)C[C@@H]23)[C@@]2(C)CCC(=O)C=C12 [EM-925]	81) %
C[C@]12CCC(=O)C=C1C=C[C@@H]1[C@@H]2CC[C@]2(C)C(=O)C3(CC4CC4C3)C[C@@H]12 (some centres unmarked) [EM-1299, 4,6-Androstadien-3,17-dione-16-spirobicyclo[3′.1′.0′]-hexane]	99) %
